In US9395368B2, “Methods, agents and peptides for inducing an immune response to matrix metalloproteinase-2 expressing tumors” (New York University, priority 2010, dated 2016):

Test system: MMP-2-specific CD4+ T cell clones
Test: Epitope specificity of MMP-2-specific CD4+ T cell clones with individual peptides (ELISA)
Type: cell-based, human
Details: individual peptides 2 μM; TNFα, IL-4 and IFNγ production
Procedure: (A) MMP-2-specific CD4^+ T cell clones were generated and characterized as described in Experimental Procedures. Clone HD9828/52 is shown as a representative example. Epitope specificities were assessed after overnight stimulation with individual peptides (2 μM). IFNγ, TNFα and IL-4 release was measured by ELISA. (B) All MMP-2-specific CD4^+ T cell clones were characterized by staining for CD4, CD8 and TCR Vβ chain expression. Clone HD9828/52 is shown as a representative example. (C) To establish HLA class-II isotype restriction, CD4^+ T cell clones were stimulated by corresponding peptides in the absence or presence of blocking mAb (10 μg/mL) for HLA-DP, HLA-DQ or HLA-DR and IFNγ release was measured by ELISA. (D) Purified CD4^+/CD25^− cells were stimulated for 12 days by autologous DCs incubated with MMP-2 protein (10 μM) and subsequently washed. MMP-2-specific CD4^+ T cells were detected by intracellular staining of IFNγ, TNFα and IL-4 after 6 hours of stimulation with MMP-2 peptide pool (2 μM). Numbers in the upper right quadrants are the percentages of each population.
All 19 MMP-2-specific CD4^+ T cell clones were characterized for epitope specificity by testing clone responses to every peptide separately. TCR Vβ expression was assessed by surface staining HLA class-II isotype restriction was determined by using blocking mAb to HLA-DP, -DQ and -DR. Results listed for the T cell clone HD9828/MC1/52 are shown in FIG. 1 and FIG. 11, and are highlighted in bold italics.
T Cell culture, stimulation and priming. Peripheral blood mononuclear cells (PBMCs) were purified from healthy donor-(HD) or cord blood donor-(CB) derived buffy coats (New York Blood Center) by Ficoll-Paque Plus (GE Healthcare) centrifugation. CD4^+/CD25^− cells were enriched (>90%) by magnetic cell sorting (Miltenyi Biotec) and primed/stimulated for 12-15 days either with irradiated (35Gy) autologous CD4^− cells or with autologous mature DCs in IMDM (GIBCO) supplemented with 1 mM HEPES (Life Technologies), 2 mM L-glutamine (Sigma), […] (Sigma) and 5% heat inactivated pooled human serum (PHS; Valley Biomedical) in the presence of rhIL-2 (10 UI/mL) and IL7 (5 ng/mL) (R&D Systems). Antigen presenting cells (CD4^− cells or DCs) were loaded either with peptides (2 μM) or with the MMP-2 protein (10 μg/mL) for 2 and 5 h, respectively. DCs were matured using the TLR3 agonist poly(I:C) at 5 μg/mL/10^6 DCs (Amersham). To generate T cell clones, we originally relied on our published methodology (Godefroy et al., 2006; Godefroy et al., 2007; the entire contents of each of which is incorporated herein by reference), involving enrichment of IFNγ-secreting cells upon short-term culture and peptide stimulation to generate MMP-2 responsive clones. Briefly, CD4^+ T cells were stimulated by CD4^− cells irradiated and pulsed with peptides for 12 days in the presence of rhIL-2 and rhIL-7. CD4^+ T cells were then restimulated with peptides for 3 hours before capturing IFNγ-secreting specific cells using a bispecific antibody coating T cells and capturing produced IFNγ. Positive cells were purified magnetically before being cloned. Although MMP-2-specific cells could be isolated, it was realized that IFNγ secretion was marginal compared to their secretion of IL-4 and TNFα. IFNγ-secreting cells in response to MMP-2 peptide pool were enriched by cytokine-guided magnetic cell sorting (Miltenyi Biotec) as described above and cloned the following day by limiting dilution in the presence of irradiated allogeneic PBMCs, 1 μg/mL phytohemagglutinin-L (Sigma) and 150 UI/mL rhIL-2. Tumor infiltrating lymphocytes (TILs) were provided by Pr. F. Jotereau and B. Dréno. They were obtained from tumor-invaded lymph nodes of melanoma patients (stage Mb) and expanded ex vivo. These patients received autologous TILs and IL-2 infusions in a clinical trial (Labarriere et al., 2002). […]

Sequence: AFNWSKNKKTYIFAGDKFWR (listed as Homo sapiens) [P571-590]
- recognition by CD4+ T cell clones: recognized

Sequence: ESCTSAGRSDGKMWCATTAN (listed as Homo sapiens) [P361-380]
- recognition by CD4+ T cell clones: recognized

Sequence: FFKGAYYLKLENQSLKSVKF (listed as Homo sapiens) [P631-650]
- recognition by CD4+ T cell clones: recognized

Sequence: GCLLSHAAAAPSPIIKFPGD (listed as Homo sapiens) [P21-40]
- recognition by CD4+ T cell clones: recognized

Sequence: GFPKLIADAWNAIPDNLDAV (listed as Homo sapiens) [P601-620]
- recognition by CD4+ T cell clones: recognized

Sequence: GYPKPLTSLGLPPDVQRVDA (listed as Homo sapiens) [P551-570]
- recognition by CD4+ T cell clones: recognized

Sequence: MEALMARGALTGPLRALCLL (listed as Homo sapiens) [P1-20]
- recognition by CD4+ T cell clones: recognized

Sequence: RIHDGEADIMINFGRWEHGD (listed as Homo sapiens) [P161-180]
- recognition by CD4+ T cell clones: recognized

Sequence: TGPLRALCLLGCLLSHAAAA (listed as Homo sapiens) [P11-30]
- recognition by CD4+ T cell clones: recognized

Sequence: VAPKTDKELAVQYLNTFYGC (listed as Homo sapiens) [P41-60]
- recognition by CD4+ T cell clones: recognized

Sequence: VDLQGGGHSYFFKGAYYLKL (listed as Homo sapiens) [P621-640]
- recognition by CD4+ T cell clones: recognized
